Laboratory results from ChEMBL document CHEMBL1201862, “PubChem BioAssay data set” (2004).
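In this assay, cells in 96-well plates receive the compound at five concentrations for 48 hours. Endpoints are linearly interpolated between the surrounding concentrations. GI50: concentration for 50% inhibition of growth.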 Activity calls are given as the source filed them. No stated cut-off is given here; in the data, active = GI50 up to about 1.1 µM and inactive = higher.

Key:
Test in all cases: NCI-60 cell line screen, 48 h
COLO 205 = tested on: COLO 205
KM12 = tested on: KM12
SF-295 = tested on: SF-295
RPMI-8226 = tested on: RPMI-8226
SNB-19 = tested on: SNB-19
SK-MEL-2 = tested on: SK-MEL-2
UACC-62 = tested on: UACC-62
786-0 = tested on: 786-0
T47D = tested on: T47D
ACHN = tested on: ACHN
SK-OV-3 = tested on: SK-OV-3
UACC-257 = tested on: UACC-257
OVCAR-3 = tested on: OVCAR-3
SR = tested on: SR
MDA-N = tested on: MDA-N
MCF7 = tested on: MCF7
UO-31 = tested on: UO-31
EKVX = tested on: EKVX
OVCAR-5 = tested on: OVCAR-5
HOP-62 = tested on: HOP-62
SK-MEL-5 = tested on: SK-MEL-5
MDA-MB-231 = tested on: MDA-MB-231
PC-3 = tested on: PC-3
SW-620 = tested on: SW-620
A498 = tested on: A498
SK-MEL-28 = tested on: SK-MEL-28
SN12C = tested on: SN12C
Hs-578T = tested on: Hs-578T
K562 = tested on: K562
HCT-116 = tested on: HCT-116
A549 = tested on: A549
MDA-MB-435 = tested on: MDA-MB-435
TK-10 = tested on: TK-10
M14 = tested on: M14
HCC 2998 = tested on: HCC 2998
NCI-H460 = tested on: NCI-H460
HT-29 = tested on: HT-29
NCI-H23 = tested on: NCI-H23
MOLT-4 = tested on: MOLT-4
NCI-H522 = tested on: NCI-H522
CCRF-CEM = tested on: CCRF-CEM
U-251 = tested on: U-251
DU-145 = tested on: DU-145
OVCAR-4 = tested on: OVCAR-4
SF-539 = tested on: SF-539
OVCAR-8 = tested on: OVCAR-8
LOX IMVI = tested on: LOX IMVI
IGROV-1 = tested on: IGROV-1
HL-60 = tested on: HL-60
SF-268 = tested on: SF-268
Malme-3M = tested on: Malme-3M
NCI/ADR-RES = tested on: NCI/ADR-RES
BT-549 = tested on: BT-549
SNB-75 = tested on: SNB-75
CAKI-1 = tested on: CAKI-1
HCT-15 = tested on: HCT-15
NCI-H226 = tested on: NCI-H226
HOP-92 = tested on: HOP-92

SMILES: Cc1ccc(S(=O)(=O)N2CCCC2C(=O)O[C@H]2CC[C@H]3CC=C[C@H]32)cc1 (stereo partly specified)
- GI50 (COLO 205): > 10 µM (inactive)
- GI50 (KM12): > 100 µM (inactive)
- GI50 (SF-295): 23.7 µM (inactive)
- GI50 (RPMI-8226): 17.1 µM (inactive)
- GI50 (SNB-19): 76.9 µM (inactive)
- GI50 (SK-MEL-2): > 10 µM (inactive)
- GI50 (UACC-62): 97.3 µM (inactive)
- GI50 (786-0): 18.9 µM (inactive)
- GI50 (T47D): 38.3 µM (inactive)
- GI50 (ACHN): 18.7 µM (inactive)
- GI50 (SK-OV-3): 33.7 µM (inactive)
- GI50 (UACC-257): 23.8 µM (inactive)
- GI50 (OVCAR-3): > 100 µM (inactive)
- GI50 (SR): 24.9 µM (inactive)
- GI50 (MDA-N): > 69.8 µM (inactive)
- GI50 (MCF7): 26.4 µM (inactive)
- GI50 (UO-31): 29.9 µM (inactive)
- GI50 (EKVX): 65.6 µM (inactive)
- GI50 (OVCAR-5): > 100 µM (inactive)
- GI50 (HOP-62): 45.4 µM (inactive)
- GI50 (SK-MEL-5): 19.1 µM (inactive)
- GI50 (MDA-MB-231): 63.4 µM (inactive)
- GI50 (PC-3): 25 µM (inactive)
- GI50 (SW-620): 31.1 µM (inactive)
- GI50 (A498): 23.8 µM (inactive)
- GI50 (SK-MEL-28): 29.9 µM (inactive)
- GI50 (SN12C): 27.8 µM (inactive)
- GI50 (Hs-578T): 41.4 µM (inactive)
- GI50 (K562): 14.9 µM (inactive)
- GI50 (HCT-116): 19.1 µM (inactive)
- GI50 (A549): 19.4 µM (inactive)
- GI50 (MDA-MB-435): 80.2 µM (inactive)
- GI50 (TK-10): > 10 µM (inactive)
- GI50 (M14): 38.7 µM (inactive)
- GI50 (HCC 2998): 67.6 µM (inactive)
- GI50 (NCI-H460): 27 µM (inactive)
- GI50 (HT-29): 40.3 µM (inactive)
- GI50 (NCI-H23): 35.6 µM (inactive)
- GI50 (MOLT-4): 7.89 µM (inactive)
- GI50 (NCI-H522): > 10 µM (inactive)
- GI50 (CCRF-CEM): 13.8 µM (inactive)
- GI50 (U-251): 45.4 µM (inactive)
- GI50 (DU-145): > 10 µM (inactive)
- GI50 (OVCAR-4): > 55.8 µM (inactive)
- GI50 (SF-539): > 10 µM (inactive)
- GI50 (OVCAR-8): 31.8 µM (inactive)
- GI50 (LOX IMVI): 20.7 µM (inactive)
- GI50 (IGROV-1): 41.3 µM (inactive)
- GI50 (HL-60): > 10 µM (inactive)
- GI50 (SF-268): > 100 µM (inactive)
- GI50 (Malme-3M): 47.1 µM (inactive)
- GI50 (NCI/ADR-RES): 24.5 µM (inactive)
- GI50 (BT-549): 47.4 µM (inactive)
- GI50 (SNB-75): > 74.6 µM (inactive)
- GI50 (CAKI-1): > 100 µM (inactive)
- GI50 (HCT-15): > 10 µM
- GI50 (NCI-H226): 24.7 µM (inactive)

SMILES: O=C1CCCC/C1=C\c1ccc([N+](=O)[O-])cc1
- GI50 (COLO 205): 18.4 µM (inactive)
- GI50 (KM12): 18.3 µM (inactive)
- GI50 (SF-295): 18.2 µM (inactive)
- GI50 (RPMI-8226): 7.57 µM (inactive)
- GI50 (SNB-19): 17.1 µM (inactive)
- GI50 (SK-MEL-2): 21.5 µM (inactive)
- GI50 (UACC-62): 16.7 µM (inactive)
- GI50 (786-0): 14.9 µM (inactive)
- GI50 (T47D): 23.6 µM (inactive)
- GI50 (ACHN): 24 µM (inactive)
- GI50 (SK-OV-3): 17.2 µM (inactive)
- GI50 (UACC-257): 15.5 µM (inactive)
- GI50 (OVCAR-3): 27.5 µM (inactive)
- GI50 (SR): 20.2 µM (inactive)
- GI50 (MDA-N): 17.8 µM (inactive)
- GI50 (MCF7): 18.5 µM (inactive)
- GI50 (UO-31): 19.3 µM (inactive)
- GI50 (EKVX): 39.6 µM (inactive)
- GI50 (OVCAR-5): 54.2 µM (inactive)
- GI50 (HOP-62): 11.5 µM (inactive)
- GI50 (HOP-92): 19.6 µM (inactive)
- GI50 (SK-MEL-5): 27.2 µM (inactive)
- GI50 (MDA-MB-231): 21.8 µM (inactive)
- GI50 (PC-3): 2.03 µM (inactive)
- GI50 (SW-620): 1.96 µM (inactive)
- GI50 (SK-MEL-28): 11.4 µM (inactive)
- GI50 (SN12C): 13.5 µM (inactive)
- GI50 (Hs-578T): 28.3 µM (inactive)
- GI50 (K562): 2.82 µM (inactive)
- GI50 (HCT-116): 12.4 µM (inactive)
- GI50 (A549): 25.5 µM (inactive)
- GI50 (MDA-MB-435): > 10 µM (inactive)
- GI50 (TK-10): 8.67 µM (inactive)
- GI50 (M14): 18.4 µM (inactive)
- GI50 (HCC 2998): 12.3 µM (inactive)
- GI50 (NCI-H460): 35.4 µM (inactive)
- GI50 (HT-29): 37.3 µM (inactive)
- GI50 (NCI-H23): 24 µM (inactive)
- GI50 (MOLT-4): 5.48 µM (inactive)
- GI50 (NCI-H522): 11 µM (inactive)
- GI50 (CCRF-CEM): 2.91 µM (inactive)
- GI50 (U-251): 16.1 µM (inactive)
- GI50 (DU-145): 39.1 µM (inactive)
- GI50 (OVCAR-4): 22.5 µM (inactive)
- GI50 (SF-539): 20.4 µM (inactive)
- GI50 (OVCAR-8): 19.4 µM (inactive)
- GI50 (LOX IMVI): 1.79 µM (inactive)
- GI50 (IGROV-1): 17.1 µM (inactive)
- GI50 (HL-60): 42.5 µM (inactive)
- GI50 (SF-268): 34.6 µM (inactive)
- GI50 (NCI/ADR-RES): 19.5 µM (inactive)
- GI50 (BT-549): 23.3 µM (inactive)
- GI50 (SNB-75): 18.3 µM (inactive)
- GI50 (CAKI-1): 18.5 µM (inactive)
